Among the data in patent US11655246B2, “Aminothiazole compounds as inhibitors of CTPS1” (STEP PHARMA S.A.S., priority 2017, dated 2023) are IC50 values, retold here.

This test concerns the target T1, human CTPS1 (Homo sapiens, UniProt P17812).
T1 construct: purchased Proteros biostructures GmbH
T1 sequence (P17812 1-591): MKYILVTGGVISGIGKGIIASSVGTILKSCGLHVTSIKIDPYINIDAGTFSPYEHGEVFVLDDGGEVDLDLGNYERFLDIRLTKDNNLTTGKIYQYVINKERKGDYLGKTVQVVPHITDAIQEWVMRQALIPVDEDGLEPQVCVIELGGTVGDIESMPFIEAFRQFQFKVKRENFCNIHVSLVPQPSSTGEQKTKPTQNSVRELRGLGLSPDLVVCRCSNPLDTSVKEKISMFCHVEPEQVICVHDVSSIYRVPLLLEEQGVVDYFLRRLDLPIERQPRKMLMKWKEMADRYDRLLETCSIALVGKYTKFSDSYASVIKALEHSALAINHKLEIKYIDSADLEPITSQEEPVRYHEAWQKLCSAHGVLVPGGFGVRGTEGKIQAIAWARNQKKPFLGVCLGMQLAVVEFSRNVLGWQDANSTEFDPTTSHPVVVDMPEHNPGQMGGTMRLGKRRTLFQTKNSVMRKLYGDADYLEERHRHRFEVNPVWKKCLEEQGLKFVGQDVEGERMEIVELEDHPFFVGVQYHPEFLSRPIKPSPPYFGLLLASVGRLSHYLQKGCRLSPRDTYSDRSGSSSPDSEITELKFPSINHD
The experiment in a line: Human CTPS1 enzyme inhibition (ADP-Glo Max assay). To be noted: Table 18, additional potency data, 25° C., read-out: CTPS1 (Human CTPS1 Enzyme Inhibition data grouped by potency range). The class given is biochemical. The method, boiled down:
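ADP-Glo Max luminescence detection of ATP-to-ADP conversion by the enzyme, in 50 mM Tris, 10 mM MgCl2, 0.01% Tween-20, pH 8.0, with 2 mM L-cysteine added fresh. Enzyme preincubated with compound 10 minutes at 25° C. Percentage inhibition calculated per compound concentration.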
A general note: In ADP-Glo the light output rises with the ADP produced.
In the case of `CC(C)(C(=O)Nc1ccc(-c2cncc(OCC3CCCC3)n2)cc1)c1csc(NS(=O)(=O)C2CC2)n1` [T378, N-(4-(6-(cyclopentylmethoxy)pyrazin-2-yl)phenyl)-2-(2-(cyclopropanesulfonamido)thiazol-4-yl)-2-methylpropanamide], the IC50 lay within 1 to 10 µM. On to `CC(C)(C(=O)Nc1ccc(-c2cncc(O)n2)cc1)c1csc(NS(=O)(=O)C2CC2)n1` [T379, 2-(2-(cyclopropanesulfonamido)thiazol-4-yl)-N-(4-(6-hydroxypyrazin-2-yl)phenyl)-2-methylpropanamide], for which the IC50 fell in the range of 1 to 10 µM. Take `CCS(=O)(=O)Nc1nc(C(C)(C)C(=O)Nc2ccc(-c3cncc(C(F)(F)F)c3)cn2)cs1` [T380, 2-(2-(ethylsulfonamido)thiazol-4-yl)-2-methyl-N-(5′-(trifluoromethyl)-[3,3′-bipyridin]-6-yl)propanamide]: the IC50 was less than 0.1 µM.

As for `CCS(=O)(=O)Nc1nc(C(C)(C)C(=O)Nc2ccc(-c3cncc(C(F)(F)F)n3)cn2)cs1` [T381, 2-(2-(ethylsulfonamido)thiazol-4-yl)-2-methyl-N-(5-(6-(trifluoromethyl)pyrazin-2-yl)pyridin-2-yl)propanamide], the IC50 was less than 0.1 µM.

As to `CCOc1cncc(-c2ccc(NC(=O)C(C)(C)c3csc(NS(=O)(=O)CC)n3)nc2)n1` [T382, N-(5-(6-ethoxypyrazin-2-yl)pyridin-2-yl)-2-(2-(ethylsulfonamido)thiazol-4-yl)-2-methylpropanamide], the IC50 was less than 0.1 µM. On to `CCS(=O)(=O)Nc1nc(C(C)(C)C(=O)Nc2ccc(-c3cncc(OC(C)C)n3)cc2F)cs1` [T383, 2-(2-(ethylsulfonamido)thiazol-4-yl)-N-(2-fluoro-4-(6-isopropoxypyrazin-2-yl)phenyl)-2-methylpropanamide], for which the IC50 is less than 0.1 µM.

`CCS(=O)(=O)Nc1nc(C(C)(C)C(=O)Nc2ccc(-c3cncc(C#N)c3)cc2)cs1` [T384, N-(4-(5-cyanopyridin-3-yl)phenyl)-2-(2-(ethylsulfonamido)thiazol-4-yl)-2-methylpropanamide]: the IC50 fell in the range of 0.1 to 1 µM.

Regarding `CCS(=O)(=O)Nc1nc(C(C)(C)C(=O)Nc2ccc(-c3cncc(F)c3)cc2)cs1` [T385, 2-(2-(ethylsulfonamido)thiazol-4-yl)-N-(4-(5-fluoropyridin-3-yl)phenyl)-2-methylpropanamide], the IC50 is less than 0.1 µM. As for `CCS(=O)(=O)Nc1nc(C(C)(C)C(=O)Nc2ccc(-c3cccnc3)cc2)cs1` [T386, 2-(2-(ethylsulfonamido)thiazol-4-yl)-2-methyl-N-(4-(pyridin-3-yl)phenyl)propanamide], the IC50 is 0.1 to 1 µM. As for `CCS(=O)(=O)Nc1nc(C(C)(C)C(=O)Nc2ccc(-c3cncc(C(F)(F)F)n3)cc2)cs1` [T387, 2-(2-(ethylsulfonamido)thiazol-4-yl)-2-methyl-N-(4-(6-(trifluoromethyl)pyrazin-2-yl)phenyl)propanamide], the IC50 was less than 0.1 µM.

Consider `CCS(=O)(=O)Nc1nc(C(C)(C)C(=O)Nc2ccc(-c3cncc(OC(C)C)n3)cc2)cs1` [T388, 2-(2-(ethylsulfonamido)thiazol-4-yl)-N-(4-(6-isopropoxypyrazin-2-yl)phenyl)-2-methylpropanamide], for which the IC50 was less than 0.1 µM. Take `CC(C)(C(=O)Nc1ccc(-c2cncc(C(F)(F)F)c2)cn1)c1csc(NS(C)(=O)=O)n1` [T389, 2-methyl-2-(2-(methylsulfonamido)thiazol-4-yl)-N-(5′-(trifluoromethyl)-[3,3′-bipyridin]-6-yl)propanamide]: the IC50 is 0.1 to 1 µM.

As to `CCOc1cncc(-c2ccc(NC(=O)C(C)(C)c3csc(NS(C)(=O)=O)n3)nc2)n1` [T390, N-(5-(6-ethoxypyrazin-2-yl)pyridin-2-yl)-2-methyl-2-(2-(methylsulfonamido)thiazol-4-yl)propanamide], the IC50 is less than 0.1 µM.

As to `CC(C)(C(=O)Nc1ccc(-c2cncc(C(F)(F)F)n2)cc1F)c1csc(NS(C)(=O)=O)n1` [T391, N-(2-fluoro-4-(6-(trifluoromethyl)pyrazin-2-yl)phenyl)-2-methyl-2-(2-(methylsulfonamido)thiazol-4-yl)propanamide], the IC50 is less than 0.1 µM. As for `CC(C)Oc1cncc(-c2ccc(NC(=O)C(C)(C)c3csc(NS(C)(=O)=O)n3)c(F)c2)n1` [T392, N-(2-fluoro-4-(6-isopropoxypyrazin-2-yl)phenyl)-2-methyl-2-(2-(methylsulfonamido)thiazol-4-yl)propanamide], the figure is less than 0.1 µM. The same measure for `CC(C)(C(=O)Nc1ccc(-c2cncc(Cl)c2)cc1)c1csc(NS(C)(=O)=O)n1` [T393, N-(4-(5-chloropyridin-3-yl)phenyl)-2-methyl-2-(2-(methylsulfonamido)thiazol-4-yl)propanamide]: 0.1 to 1 µM; for `CC(C)(C(=O)Nc1ccc(-c2cncc(C(F)(F)F)n2)cc1)c1csc(NS(C)(=O)=O)n1` [T394, 2-methyl-2-(2-(methylsulfonamido)thiazol-4-yl)-N-(4-(6-(trifluoromethyl)pyrazin-2-yl)phenyl)propanamide]: less than 0.1 µM. As for `CC(C)Oc1cncc(-c2ccc(NC(=O)C(C)(C)c3csc(NS(C)(=O)=O)n3)cc2)n1` [T395, N-(4-(6-isopropoxypyrazin-2-yl)phenyl)-2-methyl-2-(2-(methylsulfonamido)thiazol-4-yl)propanamide], the IC50 was less than 0.1 µM. Consider `CC(C)(C(=O)Nc1ccc(-c2cncc(C(F)(F)F)n2)cn1)c1csc(NS(=O)(=O)CC2CC2)n1` [T396, 2-(2-((cyclopropylmethyl)sulfonamido)thiazol-4-yl)-2-methyl-N-(5-(6-(trifluoromethyl)pyrazin-2-yl)pyridin-2-yl)propanamide], for which the IC50 is 0.1 to 1 µM. As for `O=C(Nc1ccc(-c2cncc(C(F)(F)F)n2)cc1)C1(c2csc(NS(=O)(=O)C3CC3)n2)CC1` [T397, 1-(2-(cyclopropanesulfonamido)thiazol-4-yl)-N-(4-(6-(trifluoromethyl)pyrazin-2-yl)phenyl)cyclopropane-1-carboxamide], the figure is 0.1 to 1 µM; as for `CCOc1cncc(-c2ccc(NC(=O)C3(c4csc(NS(=O)(=O)C5CC5)n4)CC3)cc2)n1` [T398, 1-(2-(cyclopropanesulfonamido)thiazol-4-yl)-N-(4-(6-ethoxypyrazin-2-yl)phenyl)cyclopropane-1-carboxamide], less than 0.1 µM; as for `COCCC(C(=O)Nc1ccc(-c2cncc(C(F)(F)F)n2)cc1F)c1csc(NS(=O)(=O)C2CC2)n1` (stereo not drawn) [T399, 2-(2-(cyclopropanesulfonamido)thiazol-4-yl)-N-(2-fluoro-4-(6-(trifluoromethyl)pyrazin-2-yl)phenyl)-4-methoxybutanamide], less than 0.1 µM. Regarding `COCCC(C(=O)Nc1ccc(-c2cncc(OC(C)C)n2)cc1F)c1csc(NS(=O)(=O)C2CC2)n1` (stereo not drawn) [T400, 2-(2-(cyclopropanesulfonamido)thiazol-4-yl)-N-(2-fluoro-4-(6-isopropoxypyrazin-2-yl)phenyl)-4-methoxybutanamide], the IC50 was less than 0.1 µM. With `CCC(C(=O)Nc1ccc(-c2cncc(C(C)C)n2)cn1)c1csc(NS(=O)(=O)C2CC2)n1` (stereo not drawn) [T401, 2-(2-(cyclopropanesulfonamido)thiazol-4-yl)-N-(5-(6-isopropylpyrazin-2-yl)pyridin-2-yl)butanamide], the IC50 lay within 0.1 to 1 µM.

On to `CCC(C(=O)Nc1ccc(-c2cncc(C(C)(C)OC)n2)cn1)c1csc(NS(=O)(=O)C2CC2)n1` (stereo not drawn) [T402, 2-(2-(cyclopropanesulfonamido)thiazol-4-yl)-N-(5-(6-(2-methoxypropan-2-yl)pyrazin-2-yl)pyridin-2-yl)butanamide], for which the IC50 is 1 to 10 µM.

With `CCC(C(=O)Nc1ccc(-c2cncc(C(C)(C)OC)n2)cc1F)c1csc(NS(=O)(=O)C2CC2)n1` (stereo not drawn) [T403, 2-(2-(cyclopropanesulfonamido)thiazol-4-yl)-N-(2-fluoro-4-(6-(2-methoxypropan-2-yl)pyrazin-2-yl)phenyl)butanamide], the IC50 lay within 0.1 to 1 µM. The same measure for `CCC(C(=O)Nc1ccc(-c2cncc(C#N)n2)cc1F)c1csc(NS(=O)(=O)C2CC2)n1` (stereo not drawn) [T404, N-(4-(6-cyanopyrazin-2-yl)-2-fluorophenyl)-2-(2-(cyclopropanesulfonamido)thiazol-4-yl)butanamide]: 0.1 to 1 µM. As to `CCc1cncc(-c2ccc(NC(=O)C(CC)c3csc(NS(=O)(=O)C4CC4)n3)c(F)c2)n1` (stereo not drawn) [T405, 2-(2-(cyclopropanesulfonamido)thiazol-4-yl)-N-(4-(6-ethylpyrazin-2-yl)-2-fluorophenyl)butanamide], the IC50 is less than 0.1 µM. Regarding `CCC(C(=O)Nc1ccc(-c2cncc(C(C)(C)OC)n2)cc1)c1csc(NS(=O)(=O)C2CC2)n1` (stereo not drawn) [T406, 2-(2-(cyclopropanesulfonamido)thiazol-4-yl)-N-(4-(6-(2-methoxypropan-2-yl)pyrazin-2-yl)phenyl)butanamide], the IC50 fell in the range of 0.1 to 1 µM. Take `CCOc1cncc(-c2ccc(NC(=O)C(NC(=O)OC(C)(C)C)c3csc(NS(=O)(=O)C4CC4)n3)cc2)n1` (stereo not drawn) [T407, tert-butyl (1-(2-(cyclopropanesulfonamido)thiazol-4-yl)-2-((4-(6-ethoxypyrazin-2-yl)phenyl)amino)-2-oxoethyl)carbamate]: the IC50 is less than 0.1 µM.
